Key:
[1] = tested on: Renca cells; assay: Renca sulforhodamine B (SRB) assay, cell growth inhibition; assay type: cell-based; settings: Mus musculus, Renca, 48 h
Experimental: (§1) In two independent trials of Renca and Renca-luc cells were plated in triplicate at 8000 cells/well into 96-well plates and incubated for 24 h at 37 °C in a humidified incubator with 5% CO2 followed by a 48 h treatment period at ten-fold dilutions of the drug.

[2] = tested on: orthotopic XP258 human tumor xenografts; assay: Long-term therapy of XP258 human tumor xenografts; assay type: in vivo, mouse
From the text: The animal procedures were approved by the UT Southwestern Medical Center Institutional Animal Care and Use Committee under APNs 2017-102152 and 2018-102344-CORE. Renca-luc orthotopic tumors were induced by inserting tumor tissue (~1 mm^3) harvested from a donor mouse into the right kidney of syngeneic BALB/c mice (age 8 weeks, male and female; Envigo, Indianapolis, IN, USA), as described previously. Orthotopic XP258 tumors (derived from a patient with pT3aN0M1 clear cell RCC) were obtained from the UT Southwestern Kidney Cancer SPORE [53, 54] and maintained by serial passage. Tumors were induced by inserting tumor tissues from a donor tumor into the left kidney capsule of female NOD/SCID mice (Envigo).
(§2) OXi8007, synthesized by the Pinney Laboratory using published procedures, was dissolved in saline, verified to be in the pH range 7.3 to 7.5, and dosed at 250 mg/kg (IP). Cabozantinib (in PEG400 and ultrapure H2O (Milli-Q)) was administered at 3 mg/kg by oral gavage. Anti-PD-1 (10 mg/kg, Bio X Cell, Lebanon, NH, USA) and anti-CTLA-4 (5 mg/kg, Bio X Cell, Lebanon, NH) solutions were administered (IP) on the day before OXi8007 […].
We evaluated the longitudinal effects of OXi8007 alone and in combination with drugs currently favored for treating kidney cancer. For Renca-luc tumor-bearing mice, BLI was performed at least once a week to estimate tumor size, and mice were weighed weekly to adjust the dose as needed. Two treatment cohorts examined syngeneic orthotopic Renca-luc tumors in male BALB/c mice. Treatment started when the tumors reached about 1 × 10^6 photons/s peak total flux on BLI. The first cohort examined OXi8007 with cabozantinib. Mice were divided into four groups. Mice were assigned to groups as soon as there were sufficient to add the same numbers of animals to each group. The specific assignment was defined using the random number function in Excel. As such, each group included both faster- and slower-growing tumors. […]

[3] = tested on: Renca-luc cells; assay: Renca-luc sulforhodamine B (SRB) assay, cell growth inhibition; assay type: cell-based; settings: Mus musculus, 48 h
Experimental: as §1

[4] = tested on: orthotopic Renca-luc tumors; assay: Long-term therapy with OXi8007 and/or cabozantinib; assay type: in vivo, mouse
Experimental: as §2
We evaluated the longitudinal effects of OXi8007 alone and in combination with drugs currently favored for treating kidney cancer. For Renca-luc tumor-bearing mice, BLI was performed at least once a week to estimate tumor size, and mice were weighed weekly to adjust the dose as needed. Two treatment cohorts examined syngeneic orthotopic Renca-luc tumors in male BALB/c mice. Treatment started when the tumors reached about 1 × 10^6 photons/s peak total flux on BLI. The first cohort examined OXi8007 with cabozantinib. Mice were divided into four groups. Mice were assigned to groups as soon as there were sufficient to add the same numbers of animals to each group. The specific assignment was defined using the random number function in Excel. […] The second cohort was treated with CKIs and OXi8007 using four groups: Group 5 (OXi8007 + anti-PD-1 (10 mg/kg) + anti-CTLA-4 (5 mg/kg); n = 4), Group 6 (saline + anti-PD-1+ anti-CTLA-4; n = 3), Group 7 (saline + anti-PD-1; n = 3), and Group 8 (saline + anti-CTLA-4; n = 4). CKI antibodies were administered thrice weekly (M, W, F) for the first two weeks after the first treatment with OXi8007, which was administered twice weekly. […] Initial tumor growth was confirmed by palpation, and the mice were assigned to groups such that the first mouse with a confirmed tumor was assigned to Group 5, next to Group 6, etc., ensuring that all groups had both faster- and slower-growing tumors. […] Tumor size (BLI signal) and mouse body weights were compared using an ANOVA and multiple comparisons at a significance level of p < 0.05. Kaplan–Meier survival curves were compared using a non-parametric log-rank test using SAS software (SAS Institute Inc., SAS Viya for learners 4, Cary, NC, USA).

[5] = tested on: subcutaneous MDA-MB-231 tumors; parameters: method as in earlier work; settings: cited from earlier work

Structure (SMILES): COc1ccc2c(C(=O)c3cc(OC)c(OC)c(OC)c3)c(-c3ccc(OC)c(OP(=O)(O)O)c3)[nH]c2c1 [OXi8007]
- IC50 [1]: 1450 ± 1 nM
- Tumor weights at sacrifice ([2]; XP258, long-term therapy, monotherapy or combined): much smaller tumors
- Survival versus controls ([2]; XP258 in NOD/SCID mice, OXi8007 250 mg/kg IP twice weekly, cabozantinib 3 mg/kg oral daily): significantly enhanced survival
- IC50 [3]: 1560 ± 48 nM
- Toxicity in adult mice ([4]; 250 mg/kg IP twice weekly up to 7 weeks): no overt toxicity
- Body weight at week 7 versus baseline ([4]; Renca-luc BALB/c mice, 250 mg/kg IP twice weekly): significant loss in body weight
- Body weight loss versus pre-treatment baseline ([4]; Renca-luc BALB/c mice, OXi8007 alone): ~ 11%
- Tumor growth delay (BLI) ([4]; Renca-luc, versus control): no significant growth delay
- Overall survival versus control ([4]; Renca-luc, 250 mg/kg IP twice weekly, log-rank p = 0.053): no overall survival benefit
- Tumor growth delay [5]: significant tumor growth delay

Reference: paper PMC11898701, “Evaluating Therapeutic Efficacy of the Vascular Disrupting Agent OXi8007 Against Kidney Cancer in Mice” (Cancers, 2025)
